Results taken from patent US9353082B2, “Pharmaceutical compounds” (BIAL—PORTELA & CA, S.A., priority 2008, dated 2016).

Tests used:
FAAH [1] = biological target: T1, FAAH (Rattus norvegicus, UniProt P97612); assay: In vitro FAAH activity in rat brain membranes, 3H-AEA substrate, % of control; type: biochemical, Wistar rats; details: 100 nM test compound, low value = strong inhibitor
T1 construct: Frozen brains (without cerebellum) from Wistar rats were used; from tissue; host or cells: Wistar rat brain (without cerebellum), washed membrane pellets
T1 sequence (P97612 1-579): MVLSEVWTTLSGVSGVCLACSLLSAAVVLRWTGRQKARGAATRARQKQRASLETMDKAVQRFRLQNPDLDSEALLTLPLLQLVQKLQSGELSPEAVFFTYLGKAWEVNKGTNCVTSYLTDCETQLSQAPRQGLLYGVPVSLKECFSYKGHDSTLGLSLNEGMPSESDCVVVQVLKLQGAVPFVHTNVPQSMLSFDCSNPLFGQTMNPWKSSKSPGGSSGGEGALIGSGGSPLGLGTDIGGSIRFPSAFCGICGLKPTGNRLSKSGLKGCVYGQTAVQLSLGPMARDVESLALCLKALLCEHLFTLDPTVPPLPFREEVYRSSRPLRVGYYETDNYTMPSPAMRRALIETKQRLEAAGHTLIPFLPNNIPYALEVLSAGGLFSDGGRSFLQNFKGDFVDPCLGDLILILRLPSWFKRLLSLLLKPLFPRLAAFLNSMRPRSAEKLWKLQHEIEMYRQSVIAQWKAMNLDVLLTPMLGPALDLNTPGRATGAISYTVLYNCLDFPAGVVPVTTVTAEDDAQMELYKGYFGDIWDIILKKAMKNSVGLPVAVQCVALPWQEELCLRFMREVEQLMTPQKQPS
Outline: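 FAAH activity measured as 3H-ethanolamine released from 2 μM [3H]AEA over 10 min by rat brain membrane preparation, after 15 min 37 °C preincubation with test compound at 10 or 0.1 μM. Charcoal-separated supernatant scintillation-counted; values expressed as % of control minus no-protein blank.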

FAAH [2] = biological target: T2, FAAH (Mus musculus, UniProt O08914); assay: In vivo FAAH inhibition after oral dosing, remaining activity in brain homogenate (BRh, central nervous tissue); set-up: species or system NMRI mice; details: brain homogenate, 3 mg/kg, 8 h
T2 construct: A fragment of liver, left lung lobe and brain without cerebellum were removed; from tissue; host or cells: male NMRI mice; brain (without cerebellum) and liver homogenates
T2 sequence (O08914 1-579): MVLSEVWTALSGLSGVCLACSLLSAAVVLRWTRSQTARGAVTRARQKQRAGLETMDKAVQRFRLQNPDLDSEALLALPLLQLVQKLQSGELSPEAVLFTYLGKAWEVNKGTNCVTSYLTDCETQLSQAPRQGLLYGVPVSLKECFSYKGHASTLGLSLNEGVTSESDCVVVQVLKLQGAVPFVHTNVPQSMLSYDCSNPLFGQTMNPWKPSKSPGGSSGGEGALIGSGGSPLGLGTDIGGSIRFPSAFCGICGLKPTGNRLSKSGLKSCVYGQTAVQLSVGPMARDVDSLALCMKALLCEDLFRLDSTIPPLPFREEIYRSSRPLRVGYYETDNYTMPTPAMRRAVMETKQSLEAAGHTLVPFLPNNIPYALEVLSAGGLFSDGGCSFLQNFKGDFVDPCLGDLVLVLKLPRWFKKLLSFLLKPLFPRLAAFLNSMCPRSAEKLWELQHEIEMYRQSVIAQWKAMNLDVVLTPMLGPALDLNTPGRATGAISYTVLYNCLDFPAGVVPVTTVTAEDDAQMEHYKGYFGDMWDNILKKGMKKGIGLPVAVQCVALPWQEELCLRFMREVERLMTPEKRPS
Outline: (§1)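 Remaining FAAH activity is given as % of vehicle-treated controls after blank subtraction, measured by radiolabelled AEA hydrolysis (2 μM AEA, 5 nM 3H-AEA, 37 °C) in brain (10 min) or liver (7 min) homogenates. These came from fasted male NMRI mice dosed orally at 30 or 3 mg/kg.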

FAAH [3] = biological target: T2, FAAH; assay: In vivo FAAH inhibition after oral dosing, remaining activity in liver homogenate (LVh, peripheral tissue); set-up: species or system NMRI mice; details: liver homogenate, 3 mg/kg, 8 h
Outline: as §1

| Structure (SMILES) | In Vitro FAAH activity, 100 nM (FAAH [1]) | In Vivo BRh 3 mg/kg 8 h, remaining FAAH activity (FAAH [2]) | In Vivo LVh 3 mg/kg 8 h, remaining FAAH activity (FAAH [3]) |
| --- | --- | --- | --- |
| O=C(N1CCN(Cc2ccc(F)cc2)CC1)n1nnc2ccccc21 [Compound 121, (1H-benzo[d][1,2,3]triazol-1-yl)(4-(4-fluorobenzyl)piperazin-1-yl)methanone] | 0 % of control | 118.6 % of control | 116.1 % of control |
| O=C(NC12CC3CC(CC(C3)C1)C2)n1nnc2ccccc21 [Compound 126, N-adamantyl-1H-benzo[d][1,2,3]triazole-1-carboxamide] | 0 % of control | 0.2 % of control | 2.2 % of control |
| O=C(N1CCN(C2CCCCC2)CC1)n1nnc2ccccc21 [Compound 127, (1H-benzo[d][1,2,3]triazol-1-yl)(4-cyclohexylpiperazin-1-yl)methanone] | 0.1 % of control | 111.5 % of control | 107.3 % of control |
| CN(CCCCCc1ccccc1)C(=O)n1nnc2ccccc21 [Compound 129, N-methyl-N-(5-phenylpentyl)-1H-benzo[d][1,2,3]triazole-1-carboxamide] | 0 % of control | 2.5 % of control | 2 % of control |
| O=C(N1CCC(OCCCc2ccccc2)CC1)n1nnc2ccccc21 [Compound 135, (1H-benzo[d][1,2,3]triazol-1-yl)(4-(3-phenylpropoxy)piperidin-1-yl)methanone] | 0.1 % of control | 26.5 % of control | 30.1 % of control |
| CN1CCN(c2ccc(-c3ncn(C(=O)N4CCOCC4)n3)cc2)CC1 [Compound 139, (3-(4-(4-methylpiperazin-1-yl)phenyl)-1H-1,2,4-triazol-1-yl)(morpholino)methanone] | 80.2 % of control | 97.1 % of control | 105.7 % of control |
| CN(C(=O)n1nnc2ccccc21)C1CCC2(CC1)OCC(C)(C)CO2 [Compound 143, N-(3,3-dimethyl-1,5-dioxaspiro[5.5]undec-9-yl)-N-methyl-1H-benzotriazole-1-carboxamide] | 2.5 % of control | 0.4 % of control | 0.7 % of control |
| COc1ccc(OCCC2CCN(C(=O)n3nnc4ccccc43)CC2)cc1 [Compound 144, (1H-benzo[d][1,2,3]triazol-1-yl)(4-(2-(4-methoxyphenoxy)ethyl)piperidin-1-yl)methanone] | 0.1 % of control | 68.2 % of control | 17.6 % of control |
| Cl.N#Cc1ccc(Oc2ccc(-c3ncn(C(=O)N4CCN(c5ccccc5)CC4)n3)cc2)cc1 [Compound 145, 4-(4-(1-(4-phenylpiperazine-1-carbonyl)-1H-1,2,4-triazol-3-yl)phenoxy)benzonitrile hydrochloride] | 0.3 % of control | 89.9 % of control | 116.5 % of control |
| NC(=O)c1ccc(Oc2ccc(-c3ncn(C(=O)N4CCOCC4)n3)cc2)cc1 [Compound 147, 4-(4-(1-(morpholine-4-carbonyl)-1H-1,2,4-triazol-3-yl)phenoxy)benzamide] | 55.1 % of control | 124.4 % of control | 103 % of control |
| NC(=O)c1ccc(Oc2ccc(-c3ncn(C(=O)N4CCN(c5ccccc5)CC4)n3)cc2)cc1 [Compound 148, 4-(4-(1-(4-phenylpiperazine-1-carbonyl)-1H-1,2,4-triazol-3-yl)phenoxy)benzamide] | 0.3 % of control | 113.7 % of control | 87.6 % of control |
